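48-hour exposure; five concentrations; linearly interpolated endpoints. GI50 = concentration required for 50% inhibition of growth. TGI is the concentration that stops growth completely.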
Tests used:
Test in all cases: NCI anticancer screen, dose series, 48 h
786-0 renal = system: 786-0 renal
A549 NSCLC = system: A549 NSCLC
ACHN renal = system: ACHN renal
BT-549 breast = system: BT-549 breast
COLO 205 colon = system: COLO 205 colon
DU-145 prostate = system: DU-145 prostate
HCC-2998 colon = system: HCC-2998 colon
HCT-116 colon = system: HCT-116 colon
HCT-15 colon = system: HCT-15 colon
HOP-62 NSCLC = system: HOP-62 NSCLC
HS 578T breast = system: HS 578T breast
HT29 colon = system: HT29 colon
IGROV1 ovarian = system: IGROV1 ovarian
KM12 colon = system: KM12 colon
LOX IMVI melanoma = system: LOX IMVI melanoma
M14 melanoma = system: M14 melanoma
MCF7 breast = system: MCF7 breast
MOLT-4 leukemia = system: MOLT-4 leukemia
NCI-H226 lung = system: NCI-H226 lung
NCI-H460 lung = system: NCI-H460 lung
NCI-H522 lung = system: NCI-H522 lung
OVCAR-3 ovarian = system: OVCAR-3 ovarian
OVCAR-4 ovarian = system: OVCAR-4 ovarian
OVCAR-5 ovarian = system: OVCAR-5 ovarian
OVCAR-8 ovarian = system: OVCAR-8 ovarian
PC-3 prostate = system: PC-3 prostate
RPMI-8226 leukemia = system: RPMI-8226 leukemia
SF-268 CNS = system: SF-268 CNS
SF-295 CNS = system: SF-295 CNS
SF-539 CNS = system: SF-539 CNS
SK-MEL-2 melanoma = system: SK-MEL-2 melanoma
SK-MEL-28 melanoma = system: SK-MEL-28 melanoma
SK-MEL-5 melanoma = system: SK-MEL-5 melanoma
SK-OV-3 ovarian = system: SK-OV-3 ovarian
SN12C renal = system: SN12C renal
SNB-19 CNS = system: SNB-19 CNS
SNB-75 CNS = system: SNB-75 CNS
SW-620 colon = system: SW-620 colon
T-47D breast = system: T-47D breast
TK-10 renal = system: TK-10 renal
U251 CNS = system: U251 CNS
UACC-62 melanoma = system: UACC-62 melanoma
UO-31 renal = system: UO-31 renal
A498 renal = system: A498 renal
CAKI-1 renal = system: CAKI-1 renal
CCRF-CEM leukemia = system: CCRF-CEM leukemia
EKVX NSCLC = system: EKVX NSCLC
HL-60(TB) leukemia = system: HL-60(TB) leukemia
K-562 leukemia = system: K-562 leukemia
MALME-3M melanoma = system: MALME-3M melanoma
MDA-MB-231 breast = system: MDA-MB-231 breast
MDA-MB-435 = system: MDA-MB-435
NCI-H23 lung = system: NCI-H23 lung
NCI/ADR-RES ovarian = system: NCI/ADR-RES ovarian
RXF 393 renal = system: RXF 393 renal
UACC-257 melanoma = system: UACC-257 melanoma

## Cc1cnc2[nH]c(-c3ccc4ccccc4c3)cc(=O)c2c1
786-0 renal
  TGI: > 100 µM
A549 NSCLC
  TGI: > 100 µM
ACHN renal
  TGI: > 100 µM
BT-549 breast
  TGI: > 100 µM
COLO 205 colon
  TGI: 18.6 µM
DU-145 prostate
  TGI: 27.9 µM
HCC-2998 colon
  TGI: > 100 µM
HCT-116 colon
  GI50: 0.465 µM
  TGI: 14.5 µM
HCT-15 colon
  TGI: 21.7 µM
HOP-62 NSCLC
  TGI: > 100 µM
HS 578T breast
  TGI: > 100 µM
HT29 colon
  TGI: > 100 µM
IGROV1 ovarian
  TGI: > 100 µM
KM12 colon
  TGI: > 100 µM
LOX IMVI melanoma
  TGI: > 100 µM
M14 melanoma
  TGI: > 100 µM
MCF7 breast
  TGI: 8.68 µM
MOLT-4 leukemia
  TGI: > 100 µM
NCI-H226 lung
  TGI: > 100 µM
NCI-H460 lung
  GI50: 0.394 µM
  TGI: > 100 µM
NCI-H522 lung
  TGI: 2.25 µM
OVCAR-3 ovarian
  GI50: 0.352 µM
  TGI: 10.6 µM
OVCAR-4 ovarian
  TGI: > 100 µM
OVCAR-5 ovarian
  TGI: > 100 µM
OVCAR-8 ovarian
  TGI: > 100 µM
PC-3 prostate
  GI50: 0.404 µM
  TGI: > 100 µM
RPMI-8226 leukemia
  TGI: > 100 µM
SF-268 CNS
  TGI: > 100 µM
SF-295 CNS
  GI50: 0.549 µM
  TGI: > 100 µM
SF-539 CNS
  TGI: 9.07 µM
SK-MEL-2 melanoma
  TGI: > 100 µM
SK-MEL-28 melanoma
  TGI: > 100 µM
SK-MEL-5 melanoma
  GI50: 0.359 µM
  TGI: > 100 µM
SK-OV-3 ovarian
  TGI: > 100 µM
SN12C renal
  TGI: > 100 µM
SNB-19 CNS
  TGI: > 100 µM
SNB-75 CNS
  TGI: > 100 µM
SW-620 colon
  TGI: > 100 µM
T-47D breast
  TGI: > 100 µM
TK-10 renal
  TGI: > 100 µM
U251 CNS
  GI50: 0.464 µM
  TGI: > 100 µM
UACC-62 melanoma
  TGI: > 100 µM
UO-31 renal
  TGI: > 100 µM

## O=CN1CCN(C(=O)c2ccc(Cl)c(Cl)c2)C1=S
786-0 renal
  TGI: 17.6 µM
A498 renal
  TGI: 29.8 µM
A549 NSCLC
  TGI: 35 µM
ACHN renal
  TGI: 31.6 µM
BT-549 breast
  TGI: 33.7 µM
CAKI-1 renal
  TGI: 28.1 µM
CCRF-CEM leukemia
  TGI: 24.2 µM
COLO 205 colon
  TGI: 37.8 µM
DU-145 prostate
  TGI: 30.9 µM
EKVX NSCLC
  TGI: 31.7 µM
HCC-2998 colon
  TGI: 32.7 µM
HCT-116 colon
  TGI: 30.1 µM
HCT-15 colon
  TGI: 43 µM
HL-60(TB) leukemia
  TGI: 45.7 µM
HOP-62 NSCLC
  TGI: 32.9 µM
HS 578T breast
  TGI: > 100 µM
HT29 colon
  TGI: 38.4 µM
IGROV1 ovarian
  TGI: 30.9 µM
K-562 leukemia
  TGI: > 100 µM
KM12 colon
  TGI: 30.3 µM
LOX IMVI melanoma
  TGI: 25.9 µM
M14 melanoma
  TGI: 31.4 µM
MALME-3M melanoma
  TGI: 39.1 µM
MCF7 breast
  TGI: 25 µM
MDA-MB-231 breast
  TGI: 30.8 µM
MDA-MB-435
  TGI: 31.8 µM
MOLT-4 leukemia
  TGI: 53.8 µM
NCI-H226 lung
  TGI: 39.8 µM
NCI-H23 lung
  TGI: 41 µM
NCI-H460 lung
  TGI: 36.2 µM
NCI-H522 lung
  TGI: 28.7 µM
NCI/ADR-RES ovarian
  TGI: > 100 µM
OVCAR-3 ovarian
  TGI: 28.3 µM
OVCAR-4 ovarian
  TGI: 33.6 µM
OVCAR-5 ovarian
  TGI: 32.4 µM
OVCAR-8 ovarian
  TGI: 29.4 µM
PC-3 prostate
  TGI: 31.9 µM
RPMI-8226 leukemia
  TGI: 7.74 µM
RXF 393 renal
  TGI: 35 µM
SF-268 CNS
  TGI: 39.3 µM
SF-295 CNS
  TGI: 34.4 µM
SF-539 CNS
  TGI: 37 µM
SK-MEL-2 melanoma
  TGI: 30.6 µM
SK-MEL-28 melanoma
  TGI: 38.3 µM
SK-OV-3 ovarian
  TGI: 32.9 µM
SN12C renal
  TGI: 27.8 µM
SNB-19 CNS
  TGI: 31.7 µM
SNB-75 CNS
  TGI: 32.3 µM
SW-620 colon
  TGI: 42.1 µM
T-47D breast
  TGI: 58 µM
TK-10 renal
  TGI: 30.1 µM
U251 CNS
  TGI: 28 µM
UACC-257 melanoma
  TGI: 31.7 µM
UACC-62 melanoma
  TGI: 30.4 µM

From PubChem BioAssay (NCI)
